Test results taken from PubChem BioAssay (NCI).
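The compound was tested at five concentrations on cells cultured in 96-well plates, with a 48-hour exposure period. The concentration for full growth arrest is given as TGI.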

What was measured:
Assay in all cases: DTP human tumour cell line panel, 48 h
EKVX NSCLC = tested on: EKVX NSCLC
BT-549 breast = tested on: BT-549 breast
TK-10 renal = tested on: TK-10 renal
OVCAR-8 ovarian = tested on: OVCAR-8 ovarian
HCT-116 colon = tested on: HCT-116 colon
SF-268 CNS = tested on: SF-268 CNS
HCC-2998 colon = tested on: HCC-2998 colon
NCI-H23 lung = tested on: NCI-H23 lung
KM12 colon = tested on: KM12 colon
ACHN renal = tested on: ACHN renal
OVCAR-5 ovarian = tested on: OVCAR-5 ovarian

`Cc1ccc(S(=O)(=O)N2c3ccccc3[C@H]3CCc4c([nH]c5ccccc45)[C@H]32)cc1` showed a TGI (EKVX NSCLC) of over 100 µM, a TGI (BT-549 breast) of over 100 µM and a TGI (TK-10 renal) of over 100 µM. The TGI (OVCAR-8 ovarian) was over 100 µM, the TGI (HCT-116 colon) was over 100 µM and the TGI (SF-268 CNS) was over 100 µM. For the same compound, the TGI (HCC-2998 colon) was over 100 µM, the TGI (NCI-H23 lung) was over 100 µM and the TGI (KM12 colon) was over 100 µM. The TGI (ACHN renal) was over 100 µM and the TGI (OVCAR-5 ovarian) was over 100 µM.

With `C[C@H]1C(=O)O[C@@H]1[C@H]1COC(C)(C)O1` the TGI (EKVX NSCLC) was over 100 µM, the TGI (BT-549 breast) was over 100 µM and the TGI (TK-10 renal) was over 100 µM. For the same compound, the TGI (OVCAR-8 ovarian) was over 100 µM, the TGI (SF-268 CNS) was over 100 µM and the TGI (HCC-2998 colon) was over 100 µM. For the same compound, the TGI (NCI-H23 lung) was over 100 µM, the TGI (KM12 colon) was over 100 µM and the TGI (ACHN renal) was over 100 µM. The TGI (OVCAR-5 ovarian) was over 100 µM.

In the case of `CCN1CCN(c2nc3ccccc3nc2C(=O)c2ccc(OC)cc2)CC1`, the TGI (EKVX NSCLC) is reported as over 100 µM, the TGI (TK-10 renal) is reported as 70.4 µM and the TGI (OVCAR-8 ovarian) is reported as over 100 µM. It also gave a TGI (HCT-116 colon) of 36.7 µM, a TGI (SF-268 CNS) of over 100 µM and a TGI (HCC-2998 colon) of over 100 µM. It also gave a TGI (NCI-H23 lung) of over 100 µM, a TGI (KM12 colon) of over 100 µM and a TGI (ACHN renal) of over 100 µM. For the same compound, the TGI (OVCAR-5 ovarian) was over 100 µM.

With `COC(=O)C(=O)C(C(=O)C1=NS(=O)(=O)c2cc(S(N)(=O)=O)c(Cl)cc2N1)c1nc2ccc(C(=O)c3ccccc3)cc2[nH]c1=O` (centres undefined) the TGI (EKVX NSCLC) was over 100 µM, the TGI (TK-10 renal) was over 100 µM and the TGI (OVCAR-8 ovarian) was over 100 µM. The TGI (HCT-116 colon) was over 100 µM, the TGI (SF-268 CNS) was over 100 µM and the TGI (HCC-2998 colon) was over 100 µM. The TGI (NCI-H23 lung) was over 100 µM, the TGI (KM12 colon) was over 100 µM and the TGI (ACHN renal) was over 100 µM. For the same compound, the TGI (OVCAR-5 ovarian) was over 100 µM.

With `CN1C(=O)CN2C(Cl)(Cl)C2(c2ccccc2F)c2cc([N+](=O)[O-])ccc21` (centres undefined) the TGI (EKVX NSCLC) was over 100 µM, the TGI (TK-10 renal) was over 100 µM and the TGI (OVCAR-8 ovarian) was over 100 µM. The TGI (HCT-116 colon) was over 100 µM, the TGI (SF-268 CNS) was over 100 µM and the TGI (HCC-2998 colon) was 86 µM. The TGI (NCI-H23 lung) was over 100 µM, the TGI (KM12 colon) was over 100 µM and the TGI (ACHN renal) was over 100 µM. It also gave a TGI (OVCAR-5 ovarian) of over 100 µM.

`c1ccc(CSC2(SCc3ccccc3)CCCC2)cc1` gave a TGI (EKVX NSCLC) of over 10 µM, a TGI (TK-10 renal) of over 10 µM and a TGI (OVCAR-8 ovarian) of over 10 µM. The TGI (HCT-116 colon) was over 10 µM, the TGI (SF-268 CNS) was over 10 µM and the TGI (HCC-2998 colon) was over 10 µM. It also gave a TGI (NCI-H23 lung) of over 10 µM, a TGI (KM12 colon) of over 10 µM and a TGI (ACHN renal) of over 10 µM. The TGI (OVCAR-5 ovarian) was over 10 µM.

In the case of `Cc1cc(S(=O)(=O)NC(=C(C#N)C#N)[n+]2ccc(N(C)C)cc2)c([S-])cc1Cl`, the TGI (EKVX NSCLC) is reported as over 100 µM, the TGI (BT-549 breast) is reported as over 100 µM and the TGI (TK-10 renal) is reported as over 100 µM. The TGI (OVCAR-8 ovarian) was over 100 µM, the TGI (HCT-116 colon) was over 100 µM and the TGI (SF-268 CNS) was over 100 µM. It also gave a TGI (HCC-2998 colon) of over 100 µM, a TGI (NCI-H23 lung) of over 100 µM and a TGI (KM12 colon) of over 100 µM. For the same compound, the TGI (ACHN renal) was over 100 µM and the TGI (OVCAR-5 ovarian) was over 100 µM.

`NC(=O)c1ccc(NS(=O)(=O)c2ccc(N)cc2)nc1` was tested, and the TGI (EKVX NSCLC) was over 100 µM, the TGI (BT-549 breast) was over 100 µM and the TGI (TK-10 renal) was over 100 µM. It also gave a TGI (OVCAR-8 ovarian) of over 100 µM, a TGI (HCT-116 colon) of over 100 µM and a TGI (SF-268 CNS) of over 100 µM. The TGI (HCC-2998 colon) was over 100 µM, the TGI (NCI-H23 lung) was over 100 µM and the TGI (KM12 colon) was over 100 µM. The TGI (ACHN renal) was over 100 µM and the TGI (OVCAR-5 ovarian) was over 100 µM.

`Nc1nc(Cl)cc(NCCCNc2cc(Cl)nc(N)n2)n1` was tested, and the TGI (EKVX NSCLC) was over 100 µM, the TGI (TK-10 renal) was over 100 µM and the TGI (OVCAR-8 ovarian) was over 100 µM. For the same compound, the TGI (HCT-116 colon) was over 100 µM, the TGI (SF-268 CNS) was over 100 µM and the TGI (HCC-2998 colon) was over 100 µM. The TGI (NCI-H23 lung) was over 100 µM, the TGI (KM12 colon) was over 100 µM and the TGI (OVCAR-5 ovarian) was over 100 µM.

`Cc1ccccc1[P+](C)(c1ccccc1C)c1ccccc1C` was tested, and the TGI (EKVX NSCLC) was 35 µM, the TGI (BT-549 breast) was 63.1 µM and the TGI (TK-10 renal) was 36.8 µM. For the same compound, the TGI (OVCAR-8 ovarian) was 45.4 µM, the TGI (HCT-116 colon) was 38.5 µM and the TGI (SF-268 CNS) was over 100 µM. The TGI (HCC-2998 colon) was 12.6 µM, the TGI (NCI-H23 lung) was 27.3 µM and the TGI (ACHN renal) was 29.3 µM. For the same compound, the TGI (OVCAR-5 ovarian) was 33.5 µM.

For `CN(C)CCCNC(=O)c1cc(NC(=O)c2cc(NS(=O)(=O)c3ccc4c(c3)C(=O)c3ccccc3C4=O)cn2C)cn1C`, the TGI (EKVX NSCLC) was over 100 µM, the TGI (BT-549 breast) was over 100 µM and the TGI (TK-10 renal) was over 100 µM. The TGI (OVCAR-8 ovarian) was over 100 µM, the TGI (HCT-116 colon) was over 100 µM and the TGI (SF-268 CNS) was over 100 µM. For the same compound, the TGI (HCC-2998 colon) was over 100 µM, the TGI (NCI-H23 lung) was over 100 µM and the TGI (KM12 colon) was over 100 µM. The TGI (ACHN renal) was over 100 µM and the TGI (OVCAR-5 ovarian) was over 100 µM.

`CC1=C(C#N)C23C(=O)c4ccccc4C(O)=C2C(=O)C=CC3(O)N1` (centres undefined) gave a TGI (EKVX NSCLC) of over 100 µM, a TGI (BT-549 breast) of 3.38 µM and a TGI (TK-10 renal) of 35.7 µM. The TGI (OVCAR-8 ovarian) was over 100 µM, the TGI (HCT-116 colon) was over 100 µM and the TGI (SF-268 CNS) was 26.2 µM. It also gave a TGI (HCC-2998 colon) of 23 µM, a TGI (NCI-H23 lung) of 31.9 µM and a TGI (KM12 colon) of 38.6 µM. The TGI (ACHN renal) was 19.9 µM and the TGI (OVCAR-5 ovarian) was 36.3 µM.
